Measured values taken from US20150253330A1, “PRE-SELECTION OF SUBJECTS FOR THERAPEUTIC TREATMENT WITH AN HSP90 INHIBITOR BASED ON HYPOXIC STATUS” (Synta Pharmaceuticals Corp., priority 2012, published 2015).

Test system: AGS (wt-p53 and mut-KRAS)
Assay: 72 hr viability by CTG, gastric cancer cells
Assay type: cell-based
Conditions: viability by CTG (upper)
Protocol: Many of the oncoproteins associated with gastric cancer and Hsp90 client proteins including HER2, MET, RAS and the FGFR family. Ganetespib was evaluated for its effect on the growth of AGS (wt-p53 and mut-KRAS) and MKN45 (wt-p53, wt-KRAS, MET amplified) gastric cancer cells.

CC(C)c1cc(-c2nnc(O)n2-c2ccc3c(ccn3C)c2)c(O)cc1O [ganetespib]
IC50: 1.5 nM
